Laboratory results: US7354711B2, “Methods for inhibiting immunostimulatory DNA associated responses” (University of Iowa Research Foundation, priority 1997, dated 2008)

Assays:
WEHI 231 cells [1] = assay: Protection by ODN 1760 against C2-ceramide-induced inhibition of [3H] thymidine uptake; assay type: cell-based, mouse; details: 0.1 μM quinacrine, 6 μg/mL ODN
Method: The assay of [^3H] Thymidine incorporation was carried out as follows. WEHI 231 cells (200 μL at 2×10^5/milliliter, in duplicate or triplicate) were incubated in a 96-well plate (Costar, Cambridge Mass.). Additions were made as indicated. After incubating for 16 hours, 0.5 μCi [methyl-^3H] thymidine (2 Ci/millimole, DuPont NEN, Boston Mass.) was added to each well, and the cells were incubated for another 4 hours. Cellular DNA was then captured onto glass fiber filters (Whatman 934AH) using a cell harvester (Brandel, Gaithersberg Md.). The filters were dried, placed into plastic scintillation vials with 10 milliliters of scintillation cocktail (EconoSafe, Research Products International, Mount Prospect Ill.), and counted in a liquid scintillation counter (Beckman LS-3133 T). The ^3H recovered on the filter was expressed as a fraction of the ^3H added. In a typical experiment, WEHI 231 cells incorporate about 15% of added ^3H.
Referring to the experiments summarized in FIG. 6, WEHI 231 cells were incubated with C2-ceramide as indicated with or without 6 μgrams/milliliter ODN and 0.1 μM quinacrine and thymidine incorporation was estimated. Referring to the experiments summarized in FIG. 7, WEHI 231 cells were prelabeled with 0.5 μCi/milliliter [^3H] thymidine for 3 hours, and resuspended in fresh medium containing 10 nM thapsigargin. […]

WEHI 231 cells [2] = assay: Inhibition of CpG-ODN 1760 protection against α-sIgM-induced inhibition of [3H] thymidine uptake; assay type: cell-based, mouse
[3] = system: multi-drug resistance pump; assay: Potency with inhibition of the multi-drug resistance pump; assay type: cell-based
WEHI 231 cells [4] = assay: Protection by ODN against thapsigargin-induced DNA fragmentation; assay type: cell-based, mouse; details: 0.1 μM quinacrine, 10 nM thapsigargin, 24 hours
Method: The DNA fragmentation assay was carried out generally as follows. WEHI 231 cells were incubated with 0.5 μCi/milliliter [^3H] thymidine for 3 hours, centrifuged, resuspended in 2 milliliters of fresh medium at 2×10^5/milliliter, and incubated in a 24-well plate with additions as indicated. After incubation for 16-18 hours, 1 milliliter aliquots of the cells were centrifuged, washed with 200 μliters PBS. This suspension was drawn into a pipette tip containing 25 μliters of 2% SDS, and the mixture was immediately ejected into a well of a 0.8% agarose TBE gel containing 0.5 μliter/milliliter ethidium bromide. The gel was electrophoresed for 1 hour at 65 volts, destained in water, and photographed under ultraviolet light. The lanes of the gel were cut into three approximately equal portions. The first portion included the gel well and the first 2 millimeters of the running lane. The second and third pieces were the remainder of the lane. The gel portions were melted in glass scintillation vials and mixed with a 20 milliliter of scintillation cocktail and counted in a scintillation counter. The amount of fragmented DNA (DNA in the second and third gel pieces) was expressed as a percentage of the total counts recovered in the lane. […]

CCN(CC)CCCC(C)Nc1c2ccc(Cl)cc2nc2ccc(OC)cc12 (stereo not drawn) [quinacrine]
Block of ODN 1760 protection against C2-ceramide (FIG. 6) (WEHI 231 cells [1]): blocked this protective effect
Block of CpG-ODN action on subsequent addition (FIG. 4) (WEHI 231 cells [2]; 0.1 μM quinacrine added 8 hours after the CpG-ODN): blocked the action of CpG-ODN
Block of the action of phosphodiester ODN (FIG. 4) (WEHI 231 cells [2]; 0.1 μM quinacrine, PD ODN 30 μM at 0 and 8 hours): effective in blocking
vs. Chloroquine, fold (WEHI 231 cells [2]; Table 3, 9-aminoacridines): 7.76 fold
Activity,-log10 (concentration (M) for half maximal inhibition of CpG-ODN effect on [3H] thymidine uptake in the presence of α-sIgM) (WEHI 231 cells [2]; Table 3, 9-aminoacridines, WEHI 231 cells): 7.85
Inhibition of the CpG-ODN effect (FIG. 1) (WEHI 231 cells [2]; at nanomolar concentrations, 10 μg/mL α-sIgM, 6 μg/mL ODN 1760): completely inhibited
Inhibition at increasing concentrations of ODN 1760 (non-competitive kinetics, FIG. 3) (WEHI 231 cells [2]; range of concentrations of ODN 1760 and quinacrine, 10 μg/mL α-sIgM): increasing the concentration of ODN 1760 did not overcome the inhibitory effect
Change of potency on inhibition of the multi-drug resistance pump [3]: magnified
Block of ODN 1760 protection against thapsigargin-induced DNA fragmentation (FIG. 7) (WEHI 231 cells [4]): blocked the protective effect
